From patent publication US12544395B2, “Combination compositions comprising a beta-lactamase inhibitor and uses thereof” (priority 2018, dated 2026)

Assays:
Assay type in all cases: cell-based
E. coli SI-PBLII = assay: Broth microdilution MIC (strain enzymes: CTX-M2, TEM-1)
E. coli 1924 = assay: Broth microdilution MIC (strain enzymes: TEM-12)
K. pneumoniae 115468 = assay: Broth microdilution MIC (strain enzymes: TEM-1)
[1] = test system: ceftibuten-resistant Enterobacteriaceae expressing Class C (n=20); assay: Checkerboard broth microdilution MIC, BLI concentration impact
Protocol: (§1) Minimum inhibitory concentrations (MICs) were determined by broth microdilution method following CLSI guidelines. Tested strains were ceftibuten-resistant Enterobacteriaceae expressing ESBL (n=20), KPC (n=20), OXA-48 (n=20) and/or Class C (n=20) beta-lactamases. For each isolate, one microtiter plate was prepared and formatted as a checkerboard with the BLI (Compound 2 or clavulanic acid) titrated down the plate and ceftibuten titrated across the plate. Each agent was also tested alone. MICs were determined as the well with the lowest concentration of ceftibuten without visible growth at each concentration of BLI.

[2] = test system: ceftibuten-resistant Enterobacteriaceae expressing OXA-48 (n=20); assay: as above
Protocol: as §1

[3] = test system: ceftibuten-resistant Enterobacteriaceae, All isolates; assay: as above
Protocol: as §1

K. pneumoniae 153239 = assay: Broth microdilution MIC (strain enzymes: SHV-11, TEM-1)
K. oxytoca 496 #2 = assay: Broth microdilution MIC (strain enzymes: SHV-105, TEM-1)
K. pneumoniae 3151 = assay: Broth microdilution MIC (strain enzymes: SHV-12, TEM-1)
K. pneumoniae KPN 508 = assay: Broth microdilution MIC (strain enzymes: SHV-7, TEM-1)
K. pneumoniae KP 8 = assay: Broth microdilution MIC (strain enzymes: TEM-10, TEM-1, CTX-M15)
K. pneumoniae ESBL 8 #1 = assay: Broth microdilution MIC (strain enzymes: TEM-1, SHV-12)

**Q.** What does the source list for `CCC(=O)N[C@H]1Cc2cccc(C(=O)O)c2OB1O` [Compound 2, (R)-2-hydroxy-3-propionamido-3,4-dihydro-2H-benzo[e][1,2]oxaborinine-8-carboxylic acid]?
**A.** MIC of cefalexin (LEX) (E. coli SI-PBLII; with inhibitor at 1 μg/mL): 0.25 µg/mL; MIC of cefdinir (CDR) (E. coli SI-PBLII; with inhibitor at 1 μg/mL): 0.25 µg/mL; MIC of cefixime (CFM) (E. coli SI-PBLII; with inhibitor at 1 μg/mL): 0.25 µg/mL; MIC of ceftibuten (CTB) (E. coli SI-PBLII; with inhibitor at 1 μg/mL): 0.125 µg/mL; MIC of cefalexin (LEX) (E. coli SI-PBLII; with inhibitor at 2 μg/mL): 0.25 µg/mL; MIC of cefdinir (CDR) (E. coli SI-PBLII; with inhibitor at 2 μg/mL): 0.25 µg/mL; MIC of cefixime (CFM) (E. coli SI-PBLII; with inhibitor at 2 μg/mL): 0.25 µg/mL; MIC of ceftibuten (CTB) (E. coli SI-PBLII; with inhibitor at 2 μg/mL): 0.125 µg/mL; MIC of cefalexin (LEX) (E. coli SI-PBLII; with inhibitor at 4 μg/mL): 0.25 µg/mL; MIC of cefdinir (CDR) (E. coli SI-PBLII; with inhibitor at 4 μg/mL): 0.25 µg/mL; MIC of cefixime (CFM) (E. coli SI-PBLII; with inhibitor at 4 μg/mL): 0.25 µg/mL; MIC of ceftibuten (CTB) (E. coli SI-PBLII; with inhibitor at 4 μg/mL): 0.125 µg/mL; MIC of cefalexin (LEX) (E. coli 1924; with inhibitor at 1 μg/mL): 0.5 µg/mL; MIC of cefdinir (CDR) (E. coli 1924; with inhibitor at 1 μg/mL): 0.5 µg/mL; MIC of cefixime (CFM) (E. coli 1924; with inhibitor at 1 μg/mL): 0.5 µg/mL; MIC of ceftibuten (CTB) (E. coli 1924; with inhibitor at 1 μg/mL): 0.125 µg/mL; MIC of cefalexin (LEX) (E. coli 1924; with inhibitor at 2 μg/mL): 0.25 µg/mL; MIC of cefdinir (CDR) (E. coli 1924; with inhibitor at 2 μg/mL): 0.25 µg/mL; MIC of cefixime (CFM) (E. coli 1924; with inhibitor at 2 μg/mL): 0.5 µg/mL; MIC of ceftibuten (CTB) (E. coli 1924; with inhibitor at 2 μg/mL): 0.25 µg/mL; MIC of cefalexin (LEX) (E. coli 1924; with inhibitor at 4 μg/mL): 0.25 µg/mL; MIC of cefdinir (CDR) (E. coli 1924; with inhibitor at 4 μg/mL): 0.25 µg/mL; MIC of cefixime (CFM) (E. coli 1924; with inhibitor at 4 μg/mL): 0.25 µg/mL; MIC of ceftibuten (CTB) (E. coli 1924; with inhibitor at 4 μg/mL): 0.125 µg/mL; MIC of cefalexin (LEX) (K. pneumoniae 115468; with inhibitor at 1 μg/mL): 0.5 µg/mL; MIC of cefdinir (CDR) (K. pneumoniae 115468; with inhibitor at 1 μg/mL): 0.5 µg/mL; MIC of cefixime (CFM) (K. pneumoniae 115468; with inhibitor at 1 μg/mL): 2 µg/mL; MIC of ceftibuten (CTB) (K. pneumoniae 115468; with inhibitor at 1 μg/mL): 0.06 µg/mL; MIC of cefalexin (LEX) (K. pneumoniae 115468; with inhibitor at 2 μg/mL): 0.25 µg/mL; MIC of cefdinir (CDR) (K. pneumoniae 115468; with inhibitor at 2 μg/mL): 0.25 µg/mL; MIC of cefixime (CFM) (K. pneumoniae 115468; with inhibitor at 2 μg/mL): 0.5 µg/mL; MIC of ceftibuten (CTB) (K. pneumoniae 115468; with inhibitor at 2 μg/mL): 0.06 µg/mL; MIC of cefalexin (LEX) (K. pneumoniae 115468; with inhibitor at 4 μg/mL): 0.125 µg/mL; MIC of cefdinir (CDR) (K. pneumoniae 115468; with inhibitor at 4 μg/mL): 0.125 µg/mL; MIC of cefixime (CFM) (K. pneumoniae 115468; with inhibitor at 4 μg/mL): 0.5 µg/mL; MIC of ceftibuten (CTB) (K. pneumoniae 115468; with inhibitor at 4 μg/mL): 0.06 µg/mL; MIC50 ([1]; read-out: CTB MIC50): 0.25 µg/mL; MIC90 ([1]; read-out: CTB MIC90): 1 µg/mL; MIC50 ([2]; read-out: CTB MIC50): 0.125 µg/mL; MIC90 ([2]; read-out: CTB MIC90): 0.5 µg/mL; MIC50 ([3]; read-out: CTB MIC50): 0.25 µg/mL; MIC90 ([3]; read-out: CTB MIC90): 1 µg/mL; MIC of cefalexin (LEX) (K. pneumoniae 153239; with inhibitor at 1 μg/mL): 0.5 µg/mL; MIC of cefdinir (CDR) (K. pneumoniae 153239; with inhibitor at 1 μg/mL): 0.5 µg/mL; MIC of cefixime (CFM) (K. pneumoniae 153239; with inhibitor at 1 μg/mL): 0.125 µg/mL; MIC of ceftibuten (CTB) (K. pneumoniae 153239; with inhibitor at 1 μg/mL): 0.06 µg/mL; MIC of cefalexin (LEX) (K. pneumoniae 153239; with inhibitor at 2 μg/mL): 0.25 µg/mL; MIC of cefdinir (CDR) (K. pneumoniae 153239; with inhibitor at 2 μg/mL): 0.25 µg/mL; MIC of cefixime (CFM) (K. pneumoniae 153239; with inhibitor at 2 μg/mL): 0.5 µg/mL; MIC of ceftibuten (CTB) (K. pneumoniae 153239; with inhibitor at 2 μg/mL): 0.125 µg/mL; MIC of cefalexin (LEX) (K. pneumoniae 153239; with inhibitor at 4 μg/mL): 0.25 µg/mL; MIC of cefdinir (CDR) (K. pneumoniae 153239; with inhibitor at 4 μg/mL): 0.25 µg/mL; MIC of cefixime (CFM) (K. pneumoniae 153239; with inhibitor at 4 μg/mL): 0.25 µg/mL; MIC of ceftibuten (CTB) (K. pneumoniae 153239; with inhibitor at 4 μg/mL): 0.06 µg/mL; MIC of cefalexin (LEX) (K. oxytoca 496 #2; with inhibitor at 1 μg/mL): 0.25 µg/mL; MIC of cefdinir (CDR) (K. oxytoca 496 #2; with inhibitor at 1 μg/mL): 0.25 µg/mL; MIC of cefixime (CFM) (K. oxytoca 496 #2; with inhibitor at 1 μg/mL): 0.25 µg/mL; MIC of ceftibuten (CTB) (K. oxytoca 496 #2; with inhibitor at 1 μg/mL): 0.125 µg/mL; MIC of cefalexin (LEX) (K. oxytoca 496 #2; with inhibitor at 2 μg/mL): 0.25 µg/mL; MIC of cefdinir (CDR) (K. oxytoca 496 #2; with inhibitor at 2 μg/mL): 0.25 µg/mL; MIC of cefixime (CFM) (K. oxytoca 496 #2; with inhibitor at 2 μg/mL): 0.125 µg/mL; MIC of ceftibuten (CTB) (K. oxytoca 496 #2; with inhibitor at 2 μg/mL): 0.125 µg/mL; MIC of cefalexin (LEX) (K. oxytoca 496 #2; with inhibitor at 4 μg/mL): 0.06 µg/mL; MIC of cefdinir (CDR) (K. oxytoca 496 #2; with inhibitor at 4 μg/mL): 0.06 µg/mL; MIC of cefixime (CFM) (K. oxytoca 496 #2; with inhibitor at 4 μg/mL): 0.06 µg/mL; MIC of ceftibuten (CTB) (K. oxytoca 496 #2; with inhibitor at 4 μg/mL): 0.125 µg/mL; MIC of cefalexin (LEX) (K. pneumoniae 3151; with inhibitor at 1 μg/mL): 2 µg/mL; MIC of cefdinir (CDR) (K. pneumoniae 3151; with inhibitor at 1 μg/mL): 2 µg/mL; MIC of cefixime (CFM) (K. pneumoniae 3151; with inhibitor at 1 μg/mL): 16 µg/mL; MIC of ceftibuten (CTB) (K. pneumoniae 3151; with inhibitor at 1 μg/mL): 1 µg/mL; MIC of cefalexin (LEX) (K. pneumoniae 3151; with inhibitor at 2 μg/mL): 1 µg/mL; MIC of cefdinir (CDR) (K. pneumoniae 3151; with inhibitor at 2 μg/mL): 1 µg/mL; MIC of cefixime (CFM) (K. pneumoniae 3151; with inhibitor at 2 μg/mL): 8 µg/mL; MIC of ceftibuten (CTB) (K. pneumoniae 3151; with inhibitor at 2 μg/mL): 0.25 µg/mL; MIC of cefalexin (LEX) (K. pneumoniae 3151; with inhibitor at 4 μg/mL): 0.5 µg/mL; MIC of cefdinir (CDR) (K. pneumoniae 3151; with inhibitor at 4 μg/mL): 0.5 µg/mL; MIC of cefixime (CFM) (K. pneumoniae 3151; with inhibitor at 4 μg/mL): 2 µg/mL; MIC of ceftibuten (CTB) (K. pneumoniae 3151; with inhibitor at 4 μg/mL): 0.25 µg/mL; MIC of cefalexin (LEX) (K. pneumoniae KPN 508; with inhibitor at 1 μg/mL): 0.5 µg/mL; MIC of cefdinir (CDR) (K. pneumoniae KPN 508; with inhibitor at 1 μg/mL): 0.5 µg/mL; MIC of cefixime (CFM) (K. pneumoniae KPN 508; with inhibitor at 1 μg/mL): 4 µg/mL; MIC of ceftibuten (CTB) (K. pneumoniae KPN 508; with inhibitor at 1 μg/mL): 0.125 µg/mL; MIC of cefalexin (LEX) (K. pneumoniae KPN 508; with inhibitor at 2 μg/mL): 0.25 µg/mL; MIC of cefdinir (CDR) (K. pneumoniae KPN 508; with inhibitor at 2 μg/mL): 0.25 µg/mL; MIC of cefixime (CFM) (K. pneumoniae KPN 508; with inhibitor at 2 μg/mL): 1 µg/mL; MIC of ceftibuten (CTB) (K. pneumoniae KPN 508; with inhibitor at 2 μg/mL): 0.125 µg/mL; MIC of cefalexin (LEX) (K. pneumoniae KPN 508; with inhibitor at 4 μg/mL): 0.5 µg/mL; MIC of cefdinir (CDR) (K. pneumoniae KPN 508; with inhibitor at 4 μg/mL): 0.5 µg/mL; MIC of cefixime (CFM) (K. pneumoniae KPN 508; with inhibitor at 4 μg/mL): 0.5 µg/mL; MIC of ceftibuten (CTB) (K. pneumoniae KPN 508; with inhibitor at 4 μg/mL): 0.06 µg/mL; MIC of cefalexin (LEX) (K. pneumoniae KP 8; with inhibitor at 1 μg/mL): 0.25 µg/mL; MIC of cefdinir (CDR) (K. pneumoniae KP 8; with inhibitor at 1 μg/mL): 0.25 µg/mL; MIC of cefixime (CFM) (K. pneumoniae KP 8; with inhibitor at 1 μg/mL): 0.25 µg/mL; MIC of ceftibuten (CTB) (K. pneumoniae KP 8; with inhibitor at 1 μg/mL): 0.06 µg/mL; MIC of cefalexin (LEX) (K. pneumoniae KP 8; with inhibitor at 2 μg/mL): 0.125 µg/mL; MIC of cefdinir (CDR) (K. pneumoniae KP 8; with inhibitor at 2 μg/mL): 0.125 µg/mL; MIC of cefixime (CFM) (K. pneumoniae KP 8; with inhibitor at 2 μg/mL): 0.125 µg/mL; MIC of ceftibuten (CTB) (K. pneumoniae KP 8; with inhibitor at 2 μg/mL): 0.03 µg/mL; MIC of cefalexin (LEX) (K. pneumoniae KP 8; with inhibitor at 4 μg/mL): 0.125 µg/mL; MIC of cefdinir (CDR) (K. pneumoniae KP 8; with inhibitor at 4 μg/mL): 0.125 µg/mL; MIC of cefixime (CFM) (K. pneumoniae KP 8; with inhibitor at 4 μg/mL): 0.125 µg/mL; MIC of ceftibuten (CTB) (K. pneumoniae KP 8; with inhibitor at 4 μg/mL): 0.03 µg/mL; MIC of cefalexin (LEX) (K. pneumoniae ESBL 8 #1; with inhibitor at 1 μg/mL): 0.25 µg/mL; MIC of cefdinir (CDR) (K. pneumoniae ESBL 8 #1; with inhibitor at 1 μg/mL): 0.25 µg/mL; MIC of cefixime (CFM) (K. pneumoniae ESBL 8 #1; with inhibitor at 1 μg/mL): 2 µg/mL; MIC of ceftibuten (CTB) (K. pneumoniae ESBL 8 #1; with inhibitor at 1 μg/mL): 0.25 µg/mL; MIC of cefalexin (LEX) (K. pneumoniae ESBL 8 #1; with inhibitor at 2 μg/mL): 0.125 µg/mL; MIC of cefdinir (CDR) (K. pneumoniae ESBL 8 #1; with inhibitor at 2 μg/mL): 0.125 µg/mL; MIC of cefixime (CFM) (K. pneumoniae ESBL 8 #1; with inhibitor at 2 μg/mL): 0.5 µg/mL; MIC of ceftibuten (CTB) (K. pneumoniae ESBL 8 #1; with inhibitor at 2 μg/mL): 0.125 µg/mL; MIC of cefalexin (LEX) (K. pneumoniae ESBL 8 #1; with inhibitor at 4 μg/mL): 0.25 µg/mL
